Consider seven molecules from article PMC10298982, “Stability Characterization of the Novel Anti-Cancer HM-10/10 HDL-Mimetic Peptide” (International Journal of Molecular Sciences, 2023).

What is called half-life is how long it takes for the measured level to halve. Usually % Inhibition stands for the change of the read-out against control, counted positive when it falls. As a reminder, the inhibition is the drop in the measured response relative to a control, in per cent.

Series [1] can be described thus: Stability in simulated gastric fluid (SGF). In kind it is in vitro ADME. The settings on record: SGF pH 1.3. The procedure: (§1) When developing any potentially oral-route pharmaceutical agent, the denaturing and pepsin-rich environment of the stomach must be considered. The stability of HM-10/10 was tested in simulated gastric fluid (SGF) and simulated intestinal fluid (SIF) over 120 min. […] Samples were tested at 2 μM.
(§2) For the HM-10/10 stability assay in simulated gastric and intestinal fluids, propantheline was used to confirm retention time and carbutamide was used as the internal standard for calculations.

The nature of series [2]: Stability in simulated intestinal fluid (SIF). The series is classed as in vitro ADME. As to conditions: simulated intestinal fluid (SIF), SIF pH 5.5. On the procedure: as §1, §2
A short description of series [3]: in vitro. As to conditions: human, plasma, pH 7.4.
Procedure: (§3) The supernatant was removed and incubated at 37 °C for at least 10 min before use. The pH of each matrix was checked and adjusted to pH 7.4 using 10% phosphoric acid or 1 N sodium hydroxide as necessary.
(§4) Test and control article stock solutions were spiked (1.5 µL) into matrix (0.749 mL) to a final assay concentration of 2 µM and mixed. […] These tubes were sealed and incubated at 37 °C with shaking.
(§5) The quenched samples were mixed briefly by vortexing and stored in a −20 °C freezer.
(§6) Sample plates were stored refrigerated until analysis.
(§7) The column was set to a temperature of 55 °C. […] The instrument was equipped with an electrospray ionization source (500 °C) operated in positive-ion mode.
(§8) Peak area ratios for IS-normalized test article and control article counts were used to calculate the percent remaining relative to the time zero (T0) value. As appropriate, results were plotted and further analyzed to calculate half-life (T1/2) values.
(§9) Mean peak ratios were used to calculate the percent remaining relative to the T0 value: % Remaining at Timex = (mean peak area ratio Tx/mean peak ratio T0) × 100.
Series [4] can be described thus: in vitro. As to conditions: Sprague-Dawley, rat, plasma, pH 7.4.
Procedure: as §3, §4, §5, §6, §7, §8, §9
Series [5] is described as follows: in vitro. As to conditions: beagle, dog, plasma, pH 7.4.
Procedure: as §3, §4, §5, §6, §7, §8, §9
The nature of series [6]: in vitro. As to conditions: cynomolgus monkey, plasma, pH 7.4.
Procedure: as §3, §4, §5, §6, §7, §8, §9
Series [7] can be described thus: in vitro. As to conditions: CD-1, mouse, plasma, pH 7.4.
Procedure: as §3, §4, §5, §6, §7, §8, §9
A short description of series [8]: Stability in potassium phosphate buffers of pH 1.3, 5.5 and 7.4. In kind it is physicochemical. The settings on record: potassium phosphate buffer; for remaining at 1 h, 2 µM: read-out: % Remaining at 60 min. The procedure: The stability of HM-10/10 under varying pH conditions was determined by adding the compound to potassium phosphate buffers of pH 1.3 (acidic), 5.5 (slightly acidic), and 7.4 (physiological pH), with 7-Ethoxycoumarin used as a control article. Under acidic and slightly acidic conditions, the half-life of HM-10/10 could not be determined, as the percentage of HM-10/10 was higher at the end of the time course than at the beginning (Table 3, Figure 3). […] Samples were tested at 2 µM.
The instrument was equipped with an electrospray ionization source (600 °C) operated in the positive-ion mode.

A further series addresses T1, CYP2C8 (Homo sapiens, UniProt P10632).
T1 sequence (P10632 1-490): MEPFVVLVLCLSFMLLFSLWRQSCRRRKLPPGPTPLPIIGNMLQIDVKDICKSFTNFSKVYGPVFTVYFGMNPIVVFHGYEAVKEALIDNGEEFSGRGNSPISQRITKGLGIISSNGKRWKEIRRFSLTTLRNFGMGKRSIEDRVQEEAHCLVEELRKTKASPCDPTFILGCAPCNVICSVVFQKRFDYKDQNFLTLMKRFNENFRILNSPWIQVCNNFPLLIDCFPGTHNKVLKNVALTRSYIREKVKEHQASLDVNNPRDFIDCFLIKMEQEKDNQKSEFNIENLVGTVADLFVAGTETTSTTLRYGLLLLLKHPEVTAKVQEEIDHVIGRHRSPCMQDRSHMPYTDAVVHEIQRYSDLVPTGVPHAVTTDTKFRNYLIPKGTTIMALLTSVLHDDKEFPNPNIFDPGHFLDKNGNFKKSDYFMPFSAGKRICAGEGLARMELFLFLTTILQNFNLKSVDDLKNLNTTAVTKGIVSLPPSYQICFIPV
In words: CYP450 time-dependent inhibition, CYP2C8, pooled human liver microsomes. The settings on record: Amodiaquine (2C8). (Liver microsomes are vesicles of endoplasmic reticulum, rich in cytochrome P450 enzymes.)

Series [9] relates to CYP2B6. In words: CYP2B6 induction (enzyme activity) in single-donor human hepatocytes. As to conditions: 1000 µM (positive control). The procedure:
The transport medium was replaced with 200 μL of warm (37 °C) incubation medium (InVitroGRO HI, BioIVT Catalog No. Z99009) and the plate was placed in a humidified 5% carbon dioxide incubator at 37 °C for 24 h.
In addition, test article vehicle (PBS) was added to warm (37°C) InVitroGRO HI Medium in a 5:95 (v:v) ratio. […] The plates were removed from the incubator and the hepatocytes were prepared for the induction assay by replacing the cell culture medium with medium containing either the test article, a control inducer, or vehicle control (200 µL per well). The hepatocyte plates were returned to the cell culture incubator and incubated for 24 h.
On Day 3, induction was repeated following the same steps as described above for the previous day, and plates were returned to the cell culture incubator for an additional 24 h.
After aliquots were taken to measure test article stability, all the remaining medium from each well in the hepatocyte plate was removed, all wells were washed once using 200 μL of blank assay buffer, and then 100 μL of the 1000-fold diluted substrate solutions were added to the appropriate wells. The assay plate was returned to the humidified 5% carbon dioxide incubator at 37 °C for 1 h incubation.
At the end of the incubation time, 100 μL of mRNA lysis buffer was added to each well to stop the reaction. Fifty microliters of this reaction mixture were transferred into a new plate and quenched with 200 μL of ice-cold acetonitrile containing a CYP-specific stable labeled internal standard (250 ng/mL acetaminophen-d4, 250 ng/mL hydroxybupropion-d6, or 250 ng/mL hydroxytestosterone-d3). After removal of the aliquots from the plate for enzyme activity determination, the assay plates were sealed and stored in a −70 °C freezer until use for RT-PCR, mRNA analysis.
For the induction assay samples, an aliquot (50 µL) of the supernatant was transferred to a new plate and diluted with 100 µL Milli-Q water. For the test article stability samples, an aliquot (50 µL) of the supernatant was transferred to a new plate and diluted with 60 µL 0.1% formic acid in Milli-Q water. These samples for the enzyme activity assay and article stability test were refrigerated for storage until analysis. […]
HM1010: Induction Potential of Cytochrome P450 Enzymes
(CYP1A2, CYP2B6 and CYP3A4) Using Human Cryopreserved Hepatocytes
Testing Facility Study No.
The purpose of this in-vitro study was to determine the induction potential of HM1010 on human
cytochrome P450 (CYP) isoenzyme (1A2, 2B6 and 3A4) activity. The study design is
Matrix: Inducible cryopreserved human hepatocytes three single-donor lots
Assay Buffer: InVitroGRO KHB
Substrates: Phenacetin (1A2), Bu propion (2B6), and Testosterone (3A4)
Assay conditions: 48 hours at 37°C in humidified 5% carbon dioxide incubator
Analysis: LC-MS/MS (enzyme activity) and mRNA analysis

Series [10] concerns CYP2B6. The experiment in a line: CYP2B6 induction (mRNA expression) in single-donor human hepatocytes. The settings on record: 1000 µM (control). In kind it is in vitro ADME. The procedure: RNA isolation and quantification: E-Z 96 Total RNA Kit (Omega Bio-tek, Catalog No. R1034-02) was used for RNA isolation and Quant-iT RNA assay kit (ThermoFisher, Catalog No. Q33140) was used for RNA quantification. The plates were removed from a −80 °C freezer and equilibrated to room temperature. RNA was extracted using the manufacturer’s recommended protocol. Eighty-one microliters of 100% ethanol were added into each well containing 150 µL of lysed sample to make a final ethanol concentration at 35%.
cDNA generation: For cDNA generation, a High-Capacity cDNA Reverse Transcription Kit (Applied Biosystems, Catalog No. 4319983) and QuantStudio 3 PCR system (Applied Biosystems) were used. In this step, 2X Reverse Transcription Master Mix was prepared using the contents of the kit. Then, 10 µL of total RNA was added to 10 µL of 2X Reverse Transcription Master Mix in a microplate and the plate was sealed. This plate was then run in a thermocycler to generate cDNA.
Real time PCR: SsoAdvanced Universal SYBR® Green Supermix (BIO-RAD, Catalog No. 172-5270) and the QuantStudio 3 Real-Time PCR system (Applied Biosystems) were used to perform real-time PCR on the generated cDNA. In this step, a PCR mix was prepared using PCR Supermix, SYBR® primers for the targeted genes, and nuclease-free water. Two microliters of ten-fold diluted cDNA samples (5 µL of cDNA into 45 μL of nuclease-free water) were added to 8 µL of PCR Mix in a microplate and sealed. This plate was then run through the Real-Time PCR system to generate the mRNA expression data.
• Human GAPDH • F: […] • R: […] • Human CYP1A2 • Unique Assay ID: qHsaCID0015160 • Chromosome Location: 15:75045562-75047256 • Human CYP2B6 • F: […] • R: […] • Human CYP3A4 • F: […] • R: […]

The next series has as its target CYP2C9 (Homo sapiens, UniProt P11712).
Series [11] addresses T2, CYP2D6 (Homo sapiens, UniProt P10635).
The target of series [12] is T2, CYP2D6. The experiment in a line: in vitro. The settings on record: both, microsomes.
Where [13] appears, read: both, human, microsomes, pH 7.4.

Where two headings read alike, the source gives them in different places.

Sequence of CYP2C9 (P11712 whole entry): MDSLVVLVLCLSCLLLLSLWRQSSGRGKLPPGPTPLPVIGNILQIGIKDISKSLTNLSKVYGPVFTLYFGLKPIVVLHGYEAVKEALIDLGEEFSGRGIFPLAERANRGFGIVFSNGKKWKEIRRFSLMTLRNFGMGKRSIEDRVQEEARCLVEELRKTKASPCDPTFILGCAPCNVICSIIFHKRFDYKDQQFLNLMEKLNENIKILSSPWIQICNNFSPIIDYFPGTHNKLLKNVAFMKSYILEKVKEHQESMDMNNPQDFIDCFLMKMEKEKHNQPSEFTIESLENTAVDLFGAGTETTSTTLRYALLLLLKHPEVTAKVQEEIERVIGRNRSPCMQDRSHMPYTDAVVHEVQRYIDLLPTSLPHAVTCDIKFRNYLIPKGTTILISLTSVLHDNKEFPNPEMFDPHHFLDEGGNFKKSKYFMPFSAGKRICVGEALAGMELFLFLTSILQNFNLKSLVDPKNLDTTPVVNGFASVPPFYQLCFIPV
T2 sequence (P10635 whole entry): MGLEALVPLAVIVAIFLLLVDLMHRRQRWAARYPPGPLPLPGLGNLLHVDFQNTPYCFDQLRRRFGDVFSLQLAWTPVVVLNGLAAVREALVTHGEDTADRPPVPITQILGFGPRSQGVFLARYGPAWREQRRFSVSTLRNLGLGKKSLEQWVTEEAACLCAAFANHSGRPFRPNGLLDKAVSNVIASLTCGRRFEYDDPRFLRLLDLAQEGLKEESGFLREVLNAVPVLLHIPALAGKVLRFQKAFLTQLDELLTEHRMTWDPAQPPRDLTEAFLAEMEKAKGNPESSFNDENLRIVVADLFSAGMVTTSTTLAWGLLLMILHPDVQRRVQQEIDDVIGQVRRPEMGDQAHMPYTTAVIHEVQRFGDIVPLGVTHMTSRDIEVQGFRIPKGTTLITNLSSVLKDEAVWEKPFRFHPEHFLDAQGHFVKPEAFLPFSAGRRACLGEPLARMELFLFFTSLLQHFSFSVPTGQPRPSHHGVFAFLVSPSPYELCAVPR

Consider `CC(C)[N+](C)(CCOC(=O)C1c2ccccc2Oc2ccccc21)C(C)C` [Propantheline, propantheline], for which the half-life at 2 µM in [1] was 8.7 h; in series [2] it was 13.6 h; in “in vitro [3]” it was 0.76 h; in the series “in vitro [4]”, 77.5 h; in the series “in vitro [5]” it was 4.1 h; in the series “in vitro [6]”, 11.1 h. In “in vitro [7]”, this molecule gave a half-life at 2 µM of 1.17 h. Also, the fraction remaining at 2 h, 2 µM in the series “in vitro [3]” came out at 13.3%; in the series “in vitro [4]”, 95%; in the series “in vitro [5]”, 65.7%; in the series “in vitro [6]”, 80.3%; in the series “in vitro [7]” it was 27%.
As for `CC[C@H](C)C(=O)O[C@H]1C[C@@H](C)C=C2C=C[C@H](C)[C@H](CC[C@@H]3C[C@@H](O)CC(=O)O3)[C@H]21` [Lovastatin, lovastatin], the half-life at 2 µM in “in vitro [3]” is 10.8 h; in “in vitro [4]” it was 0.138 h; in “in vitro [5]”, 7.42 h; in “in vitro [6]” it was greater than 2 h; in the series “in vitro [7]”, 0.24 h. In addition, the fraction remaining at 2 h, 2 µM in “in vitro [3]” was determined as 81.1%; in “in vitro [5]” it was 73.2%; in “in vitro [6]” it was 115%.
On to `CCOc1ccc2ccc(=O)oc2c1` [7-Ethoxycoumarin, reference compound], for which the figures for the half-life at 2 µM in [8] (Acidic (pH 1.3)), in series [8] (Physiological pH (pH 7.4)) and in series [8] (Slightly Acidic (pH 5.5)) were 13.5 h, 11.8 h and 16.5 h, respectively. For the same molecule, the share remaining at 1 h, 2 µM in series [8] (Acidic (pH 1.3)) was 89%; in [8] (Physiological pH (pH 7.4)) it was 87.5%; in series [8] (Slightly Acidic (pH 5.5)) it was 90%.
Turning to `O=c1c(O)c(-c2ccc(O)c(O)c2)oc2cc(O)cc(O)c12` [Quercetin, quercetin], the “Comments (time-dependent inhibition)” value on CYP2C8 was “No TDI”. Further, at CYP2C8 (50 µM, No PI + NADPH), the “% Inhibition at 50 µM No PI + NADPH” value amounted to 100.5%. At CYP2C8 (50 µM, No PI − NADPH), the “% Inhibition at 50 µM No PI − NADPH” value came to 100.9%. In addition, the “% Inhibition at 50 µM PI + NADPH” value on CYP2C8 (50 µM, PI + NADPH) came to 100.8%. Moreover, the “% Inhibition at 50 µM PI − NADPH” value at CYP2C8 (50 µM, PI − NADPH) was found to be 100.5%.
For the molecule `CCC1(c2ccccc2)C(=O)NC(=O)NC1=O` [Phenobarbital, phenobarbital, reference compound], in the series with CYP2B6 [9], the “Fold Increase (Enzyme Activity) Lot HH1086” value was 11.8 fold, the “Fold Increase (Enzyme Activity) Lot HH1142” value was determined as 21.4 fold and the “Fold Increase (Enzyme Activity) Lot HH1144” value came out at 7.23 fold. Also, in the series on CYP2B6 [9] (mean of three lots), the “Fold Increase (Enzyme Activity) Mean” value was 13.5 fold. Moreover, in the series with CYP2B6 [10], the “Comments (mRNA induction)” value is reported as “Induced as Expected”, the “Fold Increase (mRNA Expression) Lot HH1086” value is listed as 15.5 fold, the “Fold Increase (mRNA Expression) Lot HH1142” value came out at 22.3 fold and the “Fold Increase (mRNA Expression) Lot HH1144” value came out at 7.54 fold. Moreover, the “Fold Increase (mRNA Expression) Mean of 3 Lots” value in the series on CYP2B6 [10] was 15.1 fold.
Regarding `Nc1ccc(S(=O)(=O)Nc2ccnn2-c2ccccc2)cc1` [Sulfaphenazole, sulfaphenazole], the “Comments (time-dependent inhibition)” value at CYP2C9 was “No TDI”. Further, on CYP2C9 (setting [13]), the “% Inhibition at 50 µM No PI + NADPH” value came to 99.2%, the “% Inhibition at 50 µM No PI − NADPH” value is recorded as 99.1%, the “% Inhibition at 50 µM PI + NADPH” value turned out to be 99.7% and the “% Inhibition at 50 µM PI − NADPH” value worked out at 99.9%.
With `Fc1ccc([C@@H]2CCNC[C@H]2COc2ccc3c(c2)OCO3)cc1` [Paroxetine, paroxetine], the “Comments (time-dependent inhibition)” value at CYP2D6 [11] is given as “+TDI”. Further, the inhibition at 30 min, 50 µM on CYP2D6 [12] (pH 7.4, % Inhibition at 50 µM No PI + NADPH) is 99%; on CYP2D6 [12] (pH 7.4, % Inhibition at 50 µM No PI − NADPH), 99.1%; on CYP2D6 [12] (pH 7.4, % Inhibition at 50 µM PI + NADPH), 100%; at CYP2D6 [12] (pH 7.4, % Inhibition at 50 µM PI − NADPH) it was 99%.
